Test results taken from patent US20060193881A1, “Method and compositions for attracting mosquitoes employing (R)-(-) isomers of 1-alken-3-ols” (Bedoukian Research, Inc., priority 2005, published 2006).

How the values were obtained:
Format in all cases: in vivo
mosquitoes [1] = assay: John W. Hock fan-driven CO2 trap field test, small amount (R) vs large amount racemic, Danbury Conn.; details: 14 days; for average mosquitoes caught: CO2 150 ml/min
Procedure: A test similar to example 5 was conducted in Danbury Conn. using fan driven-traps manufactured by John W. Hock Company in Gainesville Fla. using 150 ml/min CO2. To compare the attractiveness of a large amount of racemic 1-octen-3-ol to a small amount of (R)-(-)-1-octen-3-ol, one lure contained 50 mg of (R)-(-)-1-octen-3-ol diluted in 1.5 ml diethyl phthalate, releasing 1.5 mg/day or less was evaluated against a lure containing 1660 mg of racemic 1-octen-3-ol (830 mg of each enantiomer) diluted in 1.5 ml of diethyl phthalate, and releasing approximately 40 mg of 1-octen-3-ol/day. After rotation between the two traps over 14 days, the lure with the 1660 mg of racemic octenol caught an average of 9.4 mosquitoes, while the lure containing 50 mg of (R)-(-)-1-octen-3-ol caught an average of 11.8 mosquitoes, representing an increase of 26%.

mosquitoes [2] = assay: Mosquito Magnet Pro trap field test of 1-decen-3-ol enantiomers, Florida; details: 1 gram in fibrous lure; for total mosquitoes caught: lures rotated between traps over nine days
Procedure: The tests were conducted in Florida using Mosquito Magnet Pro mosquito traps manufactured by American Biophysics, rotating the lures between traps over a period of nine days, using 1 gram of each test material in a fibrous lure of the type normally used in the traps.

mosquitoes [3] = assay: CO2 fan trap (John W. Hock model 1012) field test with wax lures, Danbury, Conn.; details: wax lure, approx. 0.17 mg/hour release, CO2 approx. 140 ml/minute, average of four three-day cycles
Procedure: The following tests were conducted in Connecticut in September 2004. Mosquito traps model 1012 manufactured by John W. Hock Company in Gainesville, Fla. were used in these experiments. The traps use a stream of CO2 directed in the vicinity of a collection bag, with a fan used to blow mosquitoes into the bag. The light supplied with the trap was turned off. The traps were spaced 65-70 feet apart at the edge of a wetland in Danbury, Conn., at least 25 feet from any buildings. The (R) and (S)-1-octen-3-ol was incorporated into a wax lure of the type manufactured by BioSensory, Inc. and placed near a stream of CO2 which was being released at a rate of approximately 140 ml/minute. The traps were operated from approximately 4:00PM until 9:00AM the next day. Daytime temperatures were 70-75° F. during the trials. Average weight loss from the wax lures during the test was approximately 4 mg/day, or 0.17 mg/hour. Three traps were used, with either (R)-1-Octen-3-ol, (S)-1-Octen-3-ol, or no treatment, rotated among the traps over a three-day cycle. Four complete cycles were performed and the results for each treatment were averaged.
The traps with no attractant were considered as the baseline catch of mosquitoes and the results of the catches with the isomers were compared to this baseline value.

mosquitoes [4] = assay: Mosquito Magnet Liberty trap field test with or without ammonium bicarbonate lure, Redding, Conn.; details: lure with 800 mg (R)-(-)-1-octen-3-ol in waxy carrier; rotated daily for 15 days
Procedure: A test similar to Example 3 was conducted in Redding, Conn., employing Mosquito Magnet Liberty traps rotated daily for 15 days. One trap was provided with a lure containing 470 mg (R)-(-)-1-octen-3-ol isomer in a waxy carrier plus 5 grams of ammonium bicarbonate provided by a lure containing ammonium bicarbonate in a controlled release polymer matrix, provided by […]-BCS Limited ([…]-BCS Limited […] Road, Treforest Industrial Estate, Pontypridd, CF37 5SU UK) and the second trap was provided with a lure containing 800 mg (R)-(-)-1-octen-3-ol isomer in the waxy carrier. The trap with the 800 mg (R)-(-)-1-octen-3-ol isomer attracted an average of 3.8 mosquitoes daily whereas the traps with only 470 mg (R)-(-)-1-octen-3-ol isomer plus the ammonium carbonate attracted average of 6.9 mosquitoes daily, an average increase of about 82%.

mosquitoes [5] = assay: Mosquito Magnet Liberty trap field test with porous frit, Danbury, Conn.; details: 1 gram on porous frit, 20-30 mg/day release
Procedure: Tests were conducted with the Mosquito Magnet Liberty model traps manufactured by American Biophysics Corp. Traps were spaced 65-70 feet apart at the edge of a wetland in Danbury, Conn., at least 25 feet from any buildings. 1 gram of test chemical was added to a clean porous frit of the type normally used in the trap, releasing approximately 20-30 mg/day. In the first test, racemic 1-octen-3-ol and (R)-(-)-1-octen-3-ol were rotated among four traps over 8 days. In the second test, (S)-(+)-1-octen-3-ol and no treatment were rotated between three traps over nine days.

mosquitoes [6] = assay: Mosquito Magnet Pro trap field test with or without ammonia source, Gainesville, Fla.; details: lure with 230 mg (R)-(-)-1-octen-3-ol; traps producing carbon dioxide and heat; twenty-day cycle
Procedure: The test was conducted in Gainesville, Fla. using Mosquito Magnet Pro model mosquito traps manufactured by American Biophysics Corp. that produced carbon dioxide and heat. The traps were provided with either lures having 230 mg (R)-(-)-1-octen-3-ol isomer or lures with 230 mg (R)-(-)-1-octen-3-ol isomer in combination with a source of ammonia provided by a lure containing ammonium bicarbonate in a controlled release polymer matrix, Bactrocera (Dacus) olae, Product code BF L080, provided by AgriSense-BCS Limited, Taffs Mead Road, Treforest Industrial Estate, Pontypridd, CF37 5SU, UK. The traps were rotated between the locations for a twenty-day cycle.

mosquitoes [7] = assay: Mosquito Magnet Liberty trap field test, effect of (S) isomer on (R) isomer, Danbury Conn.; details: 14 days
Procedure: A test to compare the effect of the presence of (S)-(+)-1-octen-3-ol on the efficacy of (R)-(-)-1-octen-3-ol was conducted in Danbury Conn. One lure contained 200 mg of (R)-(-)-1-octen-3-ol diluted in diethyl phthalate to slow release to under 1.7 mg/day. The other lure was identical except that it also contained 200 mg of (S)-(+)-1-octen-3-ol (equivalent to 400 mg of racemic 1-octen-3-ol). The lures were rotated over 14 days between two American Biophysics Mosquito Magnet Liberty traps. The lure containing the 200 mg of (R)-(-)-1-octen-3-ol plus 200 mg (S)-(+)-1-octen-3-ol caught an average of 5.6 mosquitoes/day, while the lure containing 200 mg of (R)-(-)-1-octen-3-ol caught an average of 8.1 mosquitoes daily, representing an increase in efficacy of 45%.

Work on `C=CC(O)CCCCC` (racemic) [racemic octenol, 1-octen-3-ol, reference compound] yielded an average mosquitoes caught (mosquitoes [1]; lure with 1660 mg racemic in 1.5 ml diethyl phthalate, approx. 40 mg/day release) of 9.4 mosquitoes.

`C=C[C@H](O)CCCCCCC` [(R)-(-)-1-decen-3-ol] was tested, and the total mosquitoes caught (mosquitoes [2]) was 89 mosquitoes and the “improvement in catch vs (S)-(+)-1-decen-3-ol” value (mosquitoes [2]; nine days) was 89%.

With `C=C[C@H](O)CCCCC` [(R)-(-)-1-octen-3-ol] the “more mosquitoes captured than the baseline (traps with no attractant)” value (mosquitoes [3]) was 88%, the “average mosquitoes attracted daily” value (mosquitoes [4]) was 3.8 mosquitoes daily and the “more mosquitoes caught than trap with 50:50 racemic mixture of 1-octen-3-ol” value (mosquitoes [5]; first test, four traps over 8 days) was 18%. The “average number of mosquitoes attracted daily” value (mosquitoes [6]) was 14 mosquitoes, the “increase in catch vs lure with 1660 mg racemic octenol” value (mosquitoes [1]; 50 mg (R) isomer) was 26% and the average mosquitoes caught (mosquitoes [1]; lure with 50 mg (R) in 1.5 ml diethyl phthalate, 1.5 mg/day or less release) was 11.8 mosquitoes. The “increase in efficacy vs lure also containing 200 mg (S)-(+)-1-octen-3-ol” value (mosquitoes [7]; 200 mg (R) isomer) was 45% and the average mosquitoes caught (mosquitoes [7]; lure with 200 mg (R)-(-)-1-octen-3-ol in diethyl phthalate, release under 1.7 mg/day) was 8.1 mosquitoes daily.

`C=C[C@@H](O)CCCCCCC` [(S)-(+)-1-decen-3-ol, reference compound] gave a total mosquitoes caught (mosquitoes [2]) of 47 mosquitoes.

With `C=C[C@@H](O)CCCCC` [(S)-(+)-1-octen-3-ol, reference compound] the “more mosquitoes captured than the baseline (traps with no attractant)” value (mosquitoes [3]) was 35% and the “fewer mosquitoes caught than the trap with no attractant” value (mosquitoes [5]; second test, three traps over nine days) was 37%.
